One data set relates to MRSA biofilms. Put plainly: In vivo antibiofilm efficacy test, MRSA biofilm wounds (B6.BKS(D)-Leprdb/J mice). On the set-up: species or system type II diabetic mice. As to conditions: 24 hours and 48 hours inoculation followed by 24 hour treatment of 2% mupirocin ointment. How it is done: A biofilm-containing chronic wound model was established. Briefly, MRSA was grown in TSB overnight. Subsequently, 100 μL of bacterial strain was pipetted into 4 mL of fresh TSB medium and cultivated for 3 hours followed by PBS washing for three times. Then, the bacterial concentration was adjusted to 1×10^8 CFU/mL and stored in the ice box before use. Nine […] 000697-B6.BKS(D)-Leprdb/J diabetic defective mice (male, 10-11 weeks, 50-55 g, GLU>200 mg/dL) fed with standard pellet diet and water were used.
The biofilm was established in 000697-B6.BKS(D)-Leprdb/J mice excisional wounds. […]
After the biofilm formation was performed, F127/17BIPHE2-PCL-S core-shell nanofiber membranes or Janus-type dressings were put on the wound, different dressing changes strategies were applied to treat the biofilm formed wound. […] All the dishes were inoculated in a 37° C. microbial incubator for 18 hours, and the CFU numbers were counted.
To further evaluate the anti-biofilm efficacy, MRSA biofilms were established in type II diabetic mice wounds (FIG. 21). […] The CFU of MRSA biofilms (10^10-10^12 CFU/g) formed after 24 hours and 48 hours of bacteria inoculation and removal of planktonic bacteria was quantified (FIG. 21B). […]

The subject of the next data set is MRSA USA300 biofilm. It is filed as in vivo, type II diabetic mice. As to conditions: 24 hours MRSA inoculation and subsequent 24 hour mupirocin 2% treatment.
The test system of another data set is MRSA. The experiment in a line: Antibiotic agar inhibition (MRSA inhibition zone) test. It is filed as cell-based, Staphylococcus aureus. As to conditions: FIG. 6E.
A further data set has as its system S. aureus USA300. As to conditions: compared to either LL-37 or GF-17; cited from earlier work.
The test system of data set [1] is Staphylococcus aureus USA300. As to conditions: cited from earlier work.
For data set [2] the following is noted: in biofilm; Lawrence, et al. (1994); cited from earlier work.
The subject of data set [3] is resistant ESKAPE pathogens, including persisters and biofilms. The conditions noted are these: cited from earlier work.

Non-standard residues stand in square brackets, D forms with d. No end group written: not given here. Bip = N[C@@H](Cc1ccc(-c2ccccc2)cc1)C(=O)O

Procedure for MRSA USA300 biofilm: Briefly, MRSA was grown in TSB overnight. Subsequently, 100 μL bacterial strain was pipetted into 4 mL fresh TSB medium for 3 hours followed by PBS washing for three times. Then, the bacterial concentration was adjusted to 1×10^8 CFU/mL and stored in the ice box before use. One hundred female 005314-TALLYHO/JngJ diabetic defective mice (10-11 weeks, 30-35 g, GLU>200 mg/dL) fed with standard pellet diet and water were used.
The biofilm was established in 005314-TALLYHO/JngJ mice excisional wounds. Two 6 mm-diameter full thickness wounds were created on the back of a mouse using a disposable biopsy punch (Integra Miltex®, Kai Medical, USA) and fixed with a wound splint (Grace Bio-labs, Inc, Bend, Oreg.). The wounds were all inoculated with 10 μL of 1×10^8 CFU/mL MRSA instantly after surgery, and mupirocin 2% was applied to treat the wounds at day 2 (24 hours after surgery). Then, the surrounding and wound tissue was collected using an 8 mm-diameter punch and the biofilm was confirmed by CFU count, LIVE/DEAD® staining and SEM observation.
The biofilm formation was performed as above-mentioned. The mice were then divided into control groups and peptide groups. Control groups' wounds were treated with 6-mm diameter F127-PCL core-shell nanofiber discs alone. […] All the dishes were inoculated in a 37° C. microbial incubator for 18 hours and the CFU numbers were counted. […]

With `C/C(=C\C(=O)OCCCCCCCCC(=O)O)C[C@@H]1OC[C@H](C[C@@H]2O[C@H]2[C@@H](C)[C@H](C)O)[C@@H](O)[C@H]1O` [mupirocin 2%, mupirocin], the “CFU of MRSA biofilms” value in the data set with MRSA biofilms is 10^10-10^12 CFU/g. In the data set on MRSA USA300 biofilm, the “bacteria resided on surgical site and surrounding tissues” value was 10^10 CFU/g. Further, in the data set on MRSA, the “killing of planktonic bacteria in antibiotic agar inhibition test” value is listed as “kill the planktonic bacteria very effectively”.
With “GX1KRLVQRLKDX2LRNLV, wherein X1 and X2 are biphenylalanines (SEQ ID NO: 2) (G[Bip]KRLVQRLKD[Bip]LRNLV) [17BIPHE2, molecularly engineered human cathelicidin LL-37 peptide]”, the “protection of wax moths from S. aureus USA300 infection” value with S. aureus USA300 is reported as “optimized protection”.
Turning to LL-37, the “inhibition of bacterial attachment / disruption of preformed biofilms” value in data set [1] (Mishra, et al. (2016)) is “unable to inhibit bacterial attachment or disrupt preformed biofilms”. Further, the “inhibition of biofilm growth of Staphylococcus aureus USA300” value in data set [1] (in vitro, Haisma, et al. (2014)) was “only at a low concentration”.
Consider “RRRWWWWV; SEQ ID NO: 7 (Antimicrobial peptide) [W379, peptide with merely eight amino acids]”, for which the “diffusion coefficient of peptides (D)” value in data set [2] is 3.1×10^−12 m^2/s. Further, the “antimicrobial activity against resistant ESKAPE pathogens” value in data set [3] is given as “antimicrobial activity”.

The values are drawn from patent publication US20220096706A1, “ELECTROSPUN NANOFIBER-BASED DRESSINGS AND METHODS OF MANUFACTURE AND USE THEREOF” (BOARD OF REGENTS OF THE UNIVERSITY OF NEBRASKA, priority 2019, published 2022).
